Like-named read-outs stand apart in the source and are kept apart here.
Experiments:
Mouse VDR = target: T1, Mouse VDR (Mus musculus, UniProt P48281); assay: luciferase reporter transactivation assay in HepG2-NTCP cells, full-length mVDR with CYP3A4-PXRE-Luc
T1 sequence (P48281 1-422): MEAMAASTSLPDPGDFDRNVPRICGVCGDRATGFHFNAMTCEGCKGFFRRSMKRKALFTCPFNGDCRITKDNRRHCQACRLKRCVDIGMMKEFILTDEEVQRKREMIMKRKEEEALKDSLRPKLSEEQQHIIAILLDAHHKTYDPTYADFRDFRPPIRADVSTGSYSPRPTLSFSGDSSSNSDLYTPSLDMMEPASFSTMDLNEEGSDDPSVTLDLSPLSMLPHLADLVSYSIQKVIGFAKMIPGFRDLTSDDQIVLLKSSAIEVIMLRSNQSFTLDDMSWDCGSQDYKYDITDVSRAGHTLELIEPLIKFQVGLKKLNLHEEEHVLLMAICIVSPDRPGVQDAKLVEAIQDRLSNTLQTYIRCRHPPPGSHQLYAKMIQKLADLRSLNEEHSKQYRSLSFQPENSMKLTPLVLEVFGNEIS

Human VDR = target: T2, Human VDR (Homo sapiens, UniProt P11473); assay: luciferase reporter transactivation assay in HepG2-NTCP cells, full-length hVDR with CYP3A4-PXRE-Luc; details: for Human VDR EC50 ± SD: HepG2-NTCP cells, luciferase reporter, unit not given, also cells saying No effect
T2 sequence (P11473 1-427): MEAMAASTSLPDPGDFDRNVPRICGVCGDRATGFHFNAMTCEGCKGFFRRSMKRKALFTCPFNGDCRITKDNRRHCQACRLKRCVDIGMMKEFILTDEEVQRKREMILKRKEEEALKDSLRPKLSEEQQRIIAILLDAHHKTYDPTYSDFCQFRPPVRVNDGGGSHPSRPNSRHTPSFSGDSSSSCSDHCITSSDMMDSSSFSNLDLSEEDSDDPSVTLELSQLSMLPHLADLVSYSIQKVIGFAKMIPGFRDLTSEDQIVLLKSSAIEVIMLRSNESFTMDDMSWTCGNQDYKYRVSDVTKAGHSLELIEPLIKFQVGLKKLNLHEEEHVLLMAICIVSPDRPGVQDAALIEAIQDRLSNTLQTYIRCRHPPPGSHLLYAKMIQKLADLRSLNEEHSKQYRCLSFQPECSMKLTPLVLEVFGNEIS

Zebrafish VDR = target: T3, Zebrafish VDR (Danio rerio, UniProt Q9PTN2); assay: luciferase reporter transactivation assay in HepG2-NTCP cells, GAL4/zfVDR LBD chimera with tk-UAS-Luc; format: cell-based; details: for Effect on zebrafish VDR: screening for activators, at least three concentrations of each drug; for Zebrafish VDR EC50 ± SD: unit not given, also cells saying No effect
T3 sequence (Q9PTN2 121-453): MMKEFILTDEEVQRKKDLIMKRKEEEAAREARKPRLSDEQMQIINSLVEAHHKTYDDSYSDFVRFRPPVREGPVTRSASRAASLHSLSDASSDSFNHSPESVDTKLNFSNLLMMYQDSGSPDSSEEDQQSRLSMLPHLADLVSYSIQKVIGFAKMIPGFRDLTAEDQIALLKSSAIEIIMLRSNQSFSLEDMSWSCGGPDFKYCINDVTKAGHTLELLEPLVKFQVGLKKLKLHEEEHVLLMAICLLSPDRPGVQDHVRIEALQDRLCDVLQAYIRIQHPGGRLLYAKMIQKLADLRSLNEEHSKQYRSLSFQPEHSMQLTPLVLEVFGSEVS

Xenopus laevis VDR = target: T4, Xenopus laevis VDR (Xenopus laevis, UniProt O13124); assay: luciferase reporter transactivation assay in HepG2-NTCP cells, GAL4/xlVDR LBD chimera with tk-UAS-Luc; format: cell-based; details: for Effect on Xenopus laevis VDR: screening for activators, at least three concentrations of each drug; for Xenopus VDR EC50 ± SD: unit not given, also cells saying No effect
T4 sequence (O13124 90-422): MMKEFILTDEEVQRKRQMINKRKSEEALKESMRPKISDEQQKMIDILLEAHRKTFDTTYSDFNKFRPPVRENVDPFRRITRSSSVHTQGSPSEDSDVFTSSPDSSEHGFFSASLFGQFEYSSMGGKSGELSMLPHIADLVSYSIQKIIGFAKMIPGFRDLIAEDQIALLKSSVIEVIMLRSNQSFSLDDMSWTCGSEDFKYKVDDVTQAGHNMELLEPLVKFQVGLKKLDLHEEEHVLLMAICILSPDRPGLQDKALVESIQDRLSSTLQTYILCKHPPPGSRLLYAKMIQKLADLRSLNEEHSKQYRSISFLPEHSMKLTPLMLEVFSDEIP

Sea lamprey VDR = target: T5, Sea lamprey VDR (Petromyzon marinus, UniProt Q7ZZY9); format: cell-based; details: for Effect on sea lamprey VDR: screening for activators, at least three concentrations of each drug; for Sea lamprey VDR EC50 ± SD: HepG2-NTCP cells, luciferase reporter, unit not given, also cells saying No effect
T5 sequence (Q7ZZY9 92-406): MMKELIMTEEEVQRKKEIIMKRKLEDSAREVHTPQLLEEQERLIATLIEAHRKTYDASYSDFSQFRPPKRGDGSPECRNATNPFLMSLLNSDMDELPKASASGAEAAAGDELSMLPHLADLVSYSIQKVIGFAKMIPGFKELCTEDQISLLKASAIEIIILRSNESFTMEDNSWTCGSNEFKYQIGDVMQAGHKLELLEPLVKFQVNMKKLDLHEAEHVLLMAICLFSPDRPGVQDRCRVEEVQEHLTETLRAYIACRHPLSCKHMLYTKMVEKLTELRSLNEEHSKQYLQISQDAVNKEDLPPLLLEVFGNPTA

[1] = tested on: testosterone 6β-hydroxylation; assay: testosterone hydroxylation (HPLC) in sea lamprey primary hepatocytes; format: cell-based; details: concentration ranges per compound
Protocol: 100 μL of sample, calibration standard, or quality material standard were pipetted into separate microcentrifuge tubes and mixed with 100 μL of methanol. Samples were vortexed and centrifuged at 13,000 rpm for 4 min. The supernatant was then injected into the HPLC.
The flow rate was 1.2 mL/min and total run time was 25 min.

Ciona VDR/PXR = details: HepG2-NTCP cells, luciferase reporter; unit not given; also cells saying No effect
[2] = HepG2-NTCP cells, luciferase reporter

Q: For `C=C1/C(=C\C=C2/CCC[C@]3(C)[C@@H]([C@H](C)/C=C/[C@H](C)C(C)C)CC[C@@H]23)C[C@@H](O)C[C@@H]1O` [1α-Hydroxyvitamin D2], which EC50 (Mouse VDR) is on record?
A: 0.8 ± 0.1 nM

Q: What about the EC50 (Human VDR) of the same molecule?
A: 13 ± 1.2 nM

Q: What about the EC50 (Zebrafish VDR; HepG2-NTCP cells, luciferase reporter, read-out: Zebrafish VDR EC50 ± SD) of the same molecule?
A: 26 ± 1.7 nM

Q: What about the EC50 (Xenopus laevis VDR; HepG2-NTCP cells, luciferase reporter, read-out: Xenopus VDR EC50 ± SD) of the same molecule?
A: 624 ± 49 nM

Q: With `CC(=O)[C@H]1CC[C@H]2[C@@H]3CC=C4C[C@@H](O)CC[C@]4(C)[C@H]3CC[C@]12C` [Pregnenolone] as the molecule, how does the “Effect on sea lamprey VDR” value (Sea lamprey VDR) read?
A: No effect

Q: What about the “effect on testosterone 6β-hydroxylation” value [1] of the same molecule?
A: None of these compounds produced significant increases in testosterone 6β-hydroxylation

Q: What about the “Effect on zebrafish VDR” value (Zebrafish VDR) of the same molecule?
A: No effect

Q: What about the “Effect on Xenopus laevis VDR” value (Xenopus laevis VDR) of the same molecule?
A: No effect

Q: Which results are given for `C[C@H](CCC(=O)NCCS(=O)(=O)O)[C@H]1CC[C@H]2[C@@H]3CC[C@@H]4C[C@H](O)CC[C@]4(C)[C@H]3CC[C@]12C` [Taurolithocholic acid]?
A: Sea lamprey VDR EC50 ± SD (Sea lamprey VDR): No effect; Ciona VDR/PXR EC50 ± SD (Ciona VDR/PXR): No effect; Mouse VDR relative efficacy (Mouse VDR; relative to maximal reference compound (0.5 μM calcitriol, efficacy = 1.0)): 0.23; Human VDR EC50 ± SD (Human VDR): No effect; Zebrafish VDR EC50 ± SD (Zebrafish VDR; [2]): No effect; Xenopus VDR EC50 ± SD (Xenopus laevis VDR; [2]): No effect

Q: Which “effect on testosterone 6β-hydroxylation” value [1] does the source give for `C[C@H](CCCO)[C@H]1CC[C@H]2[C@@H]3[C@H](O)C[C@H]4CC(=O)CC[C@]4(C)[C@H]3C[C@H](O)[C@]12C` [3-keto-5α-petromyzonol] here?
A: None of these compounds produced significant increases in testosterone 6β-hydroxylation

Q: `C[C@H](CCC(=O)NCC(=O)O)[C@H]1CC[C@H]2[C@@H]3CC[C@@H]4C[C@H](O)CC[C@]4(C)[C@H]3CC[C@]12C` [Glycolithocholic acid] was tested. Which “Sea lamprey VDR EC50 ± SD” value (Sea lamprey VDR) did it give?
A: No effect

Q: What about the “Ciona VDR/PXR EC50 ± SD” value (Ciona VDR/PXR) of the same molecule?
A: No effect

Q: What about the “Mouse VDR relative efficacy” value (Mouse VDR) of the same molecule?
A: 0.28

Q: And the “Human VDR EC50 ± SD” value (Human VDR)?
A: No effect

Q: What about the “Zebrafish VDR EC50 ± SD” value (Zebrafish VDR; [2]) of the same molecule?
A: No effect

Q: And the “Xenopus VDR EC50 ± SD” value (Xenopus laevis VDR; [2])?
A: No effect

Q: With Pregnenolone sulfate as the molecule, how does the “Effect on sea lamprey VDR” value (Sea lamprey VDR) read?
A: No effect

Q: What about the “effect on testosterone 6β-hydroxylation” value [1] of the same molecule?
A: None of these compounds produced significant increases in testosterone 6β-hydroxylation

Q: And the “Effect on zebrafish VDR” value (Zebrafish VDR)?
A: No effect

Q: And the “Effect on Xenopus laevis VDR” value (Xenopus laevis VDR)?
A: No effect

Q: What does the source list for `C[C@]12CC[C@@H](O)C[C@@H]1CC[C@@H]1[C@@H]2CC[C@]2(C)C=CC[C@@H]12` [5α-androst-16-en-3α-ol]?
A: Effect on sea lamprey VDR (Sea lamprey VDR): No effect; effect on testosterone 6β-hydroxylation [1]: None of these compounds produced significant increases in testosterone 6β-hydroxylation; Effect on zebrafish VDR (Zebrafish VDR): No effect; Effect on Xenopus laevis VDR (Xenopus laevis VDR): No effect
